Laboratory results as given in EP0474874B1, “Maillard Reaction inhibitor compositions” (Senju Pharmaceutical Co., Ltd., priority 1990, dated 1991).

What was measured:
furosine formation = assay: Inhibition of furosine formation (non-enzymatic glycosylation of BSA with glucose, HPLC); format: biochemical, bovine; conditions: 5 mM test compound, 20 mg/ml BSA, 50 mM glucose, 50 mM phosphate buffer pH 7.3, 4 weeks at 37 °C
Method: Sample solutions as shown below were aseptically prepared from bovine serum albumine (No. A-8022, Sigma)(hereinafter referred to as BSA), 50 mM phosphate buffer solution (pH 7.3) and the test compounds listed in Table 1 and aminoguanidine.
The sample solutions were kept for 4 weeks at 37 °C, and the amount of furosine which was formed by non-enzymatic glycosylation was determined by HPLC according to the method of Schleicher et al. [J. Clin. Biochem., 19:81-87 (1981).] Thus, the sample solutions after reaction were dialyzed, and aliquots of 1 ml were lyophylized and then hydrolyzed by the addition of 1 ml of 6 N hydrochloric acid followed by heating at 100 °C for 20 hours. After removal of hydrochloric acid by evaporation, 1 ml of water was added to each sample, and the samples were subjected to filtration using a filter with the pore size of 0.45 µm. The filtrate was used as the sample for HPLC. ODS-120T (Tosoh Corporation) was used for the column and 7 mM phosphoric acid solution was used as the eluant. The absorbance peak whose ratio of peak area at […] was 3.9/1 was regarded as the peak corresponding to furosine.
Upon the area of the peak of furosine of each sample, the inhibition rate of furosine formation by the test compound was calculated as follows. Inhibition rate (%)=(c-d)÷(c-n)×100 [formula] c; peak area of furosine of the control sample d; peak area of furosine of the test sample n; peak area of furosine of the normal sample

Maillard's reaction = conditions: in vitro; cited from earlier work
[1] = system: AGE formation in arterial walls; conditions: diabetic rats, in vivo; cited from earlier work
[2] = patient suffering from diabetes mellitus; cited from earlier work

Compound	Inhibition rate (%) (furosine formation)	further results
Nc1ccc(O)cc1C(=O)O [AB-1, 5-hydroxyanthranilic acid]	94.1%	
Nc1ccc(O)c(C(=O)O)c1 [AB-4, 5-aminosalicylic acid]	50.7%	
Nc1cc([N+](=O)[O-])ccc1C(=O)O [AB-3, 4-nitroanthranilic acid]	47.6%	
N=C(N)NN [aminoguanidine]	8.0%	inhibition of Maillard's reaction (Maillard's reaction): inhibits Maillard's reaction in vitro; AGE formation in arterial walls [1]: suppresses AGE formation in arterial walls of diabetic rats in vivo
Nc1cccc(C(=O)O)c1O [AB-6, 3-aminosalicylic acid]	53.4%	
Nc1ccc(C(=O)O)c(O)c1 [AB-5, 4-aminosalicylic acid]	70.0%	adverse effect upon treatment [2]: developed hypoglycaemic coma
Nc1cc(C(=O)O)ccc1O [AB-7, 3-amino-4-hydroxybenzoic acid]	60.4%	
Nc1c(O)cccc1C(=O)O [AB-2, 3-hydroxyanthranilic acid]	69.4%	
